Laboratory results published in patent US20100035755A1, “METHOD OF CONTROLLING WEEDS IN A TURF GRASS BY USING SULFONYLUREA COMPOUNDS” (Moghu Research Center Ltd., priority 2008, published 2010).
Entries after “also recorded” stand apart in the source; their conditions may differ.

Legend:
cool season turfgrass = assay: Turf grass selectivity, summary for cool season turfgrass; assay type: in vivo; conditions: application amount as low as 3 g ai/ha
Source text: Turf mats of Zoysia grass, bentgrass, Kentucky bluegrass, or perennial rye grass known as cool season turfgrass or western grass were purchased and cut into a piece having 10 cm×20 cm size. Then, each piece was transplanted in a rectangular plastic pot (surface area of 300 cm^2) in which sandy loam and mixed top soil (Boo-Nong Top Soil No. 3, for horticultural use) are filled in 1:1 ratio. After the transplantation, the grasses were cut once a week to maintain the blade height at 0.5-1.0 cm and cultivated for one month in a green house of which temperature was kept at 25˜30° C. for daytime and 15˜25° C. for nighttime, respectively. Then, the ‘test chemical’ of the above Examples 1 and 2 or ‘control chemical’ was applied thereto in an amount of 400, 200, 100, 50, 25, 12, 6, 3 g ai/ha. As a “control chemical”, pyrazolsulfuron ethyl wettable agent (manufactured by Dongbu Fine Chemicals; herein after, referred to as ‘control chemical No. 1’) and flazasulfuron (manufactured by Dongbu HiTek; herein after, referred to as ‘control chemical No. 2’), both sulfonylurea herbicides for a turf grass, were used. Application was carried out by using a track sprayer (R&D Sprayer, USA) equipped with Teejet 8002 nozzle (Spraying Systems Co., USA), and the application amount was adjusted to 2,000 L/ha, which is a typical application amount for a golf course in Korea. […]

Viola arvensis = assay: Actual field condition test of Example 2 (turf grass field); assay type: in vivo; conditions: 50 g ai/ha
Method: The test chemical of the Example 2 was applied to a turf grass field, in which Viola arvensis as a representative hard-to-control perennial weed is thriving predominantly, to evaluate a weed control effect of the compound. The experiment was carried out from May to June, 2007 in the turf grass field within Korea Research Institute of Bioscience and Biotechnology (52, Ueun-dong, Yusong-gu, Daejon, South Korea). Fourteen days after the chemical application, the turf grass was cut once.

warm season turf grass = conditions: background statement; zoysiagrass, Burmudagrass; cited from earlier work
Digitaria sanguinalis [1] = assay: Weed spectrum, greenhouse pot test; assay type: in vivo; conditions: two weeks after application
How it was run: (§1)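 Seeds of each species were sown into pots filled with sandy loam and top soil (1:1) and kept in a greenhouse. Test chemical was sprayed immediately after sowing (pre-emergence) or after two weeks' growth to about three-leaf stage (post-emergence). Efficacy was judged visually after two weeks, from 0 (none) to 100.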

Poa annua = assay: Weed spectrum, greenhouse pot test; assay type: in vivo; conditions: two weeks after application
How it was run: as §1

Kummerowia striata = assay: Weed spectrum, greenhouse pot test; assay type: in vivo; conditions: two weeks after application
How it was run: as §1

Portulaca oleracea = assay: Weed spectrum, greenhouse pot test; assay type: in vivo; conditions: two weeks after application
How it was run: as §1

Veronica officinalis = assay: Weed spectrum, greenhouse pot test; assay type: in vivo; conditions: two weeks after application
How it was run: as §1

Zoysia japonica = assay: Actual field condition test of Example 1 (golf course); assay type: in vivo; conditions: twenty days after application
Method: (§2) The test chemical of the Example 1 was applied to a turf grass field, in which Digitaria sanguinalis as a representative summer-time poaceae weed and Kyllinga brevifolia as a representative hard-to-control perennial cyperaceae weed are thriving predominantly, to evaluate weed control effect of the compound. The experiment was carried out from May to July, 2008 in the Dae-duk Research Park golf course (Doryong-dong, Yusong-gu, Daejon, South Korea). At the time of the chemical application, Digitaria sanguinalis was at about 4-leaf stage and Kyllinga brevifolia was at growth period.

Digitaria sanguinalis [2] = assay: as above; assay type: in vivo; conditions: for efficacy in actual field condition: Digitaria sanguinalis (about 4-leaf stage), twenty days after application
Method: as §2

Kentucky bluegrass = assay: as above; assay type: in vivo, Poa pratensis; conditions: twenty days after application
Method: as §2

COc1cc(OC)nc(NC(=O)NS(=O)(=O)c2ncccc2C(F)(F)F)n1 [Control chemical No. 2, Flazasulfuron, reference compound]
phytotoxicity to cool season turfgrass (cool season turfgrass): complete withering; also recorded: completely withered
Effect on Viola arvensis (Viola arvensis; After 7 days): 20
Effect on Viola arvensis (Viola arvensis; After 14 days): 50
safety to warm season turf grass (warm season turf grass): have a safety
efficacy (0-100 scale) (Digitaria sanguinalis [1]; Post-emergence, 12 g ai/ha): 50
efficacy (0-100 scale) (Digitaria sanguinalis [1]; Post-emergence, 25 g ai/ha): 70
efficacy (0-100 scale) (Digitaria sanguinalis [1]; Post-emergence, 50 g ai/ha): 80
efficacy (0-100 scale) (Digitaria sanguinalis [1]; Post-emergence, 100 g ai/ha): 80
efficacy (0-100 scale) (Digitaria sanguinalis [1]; Pre-emergence, 12 g ai/ha): 60
efficacy (0-100 scale) (Digitaria sanguinalis [1]; Pre-emergence, 25 g ai/ha): 70
efficacy (0-100 scale) (Digitaria sanguinalis [1]; Pre-emergence, 50 g ai/ha): 90
efficacy (0-100 scale) (Digitaria sanguinalis [1]; Pre-emergence, 100 g ai/ha): 100
efficacy (0-100 scale) (Poa annua; Post-emergence, 12 g ai/ha): 40
efficacy (0-100 scale) (Poa annua; Post-emergence, 25 g ai/ha): 70
efficacy (0-100 scale) (Poa annua; Post-emergence, 50 g ai/ha): 80
efficacy (0-100 scale) (Poa annua; Post-emergence, 100 g ai/ha): 90
efficacy (0-100 scale) (Poa annua; Pre-emergence, 12 g ai/ha): 40
efficacy (0-100 scale) (Poa annua; Pre-emergence, 25 g ai/ha): 70
efficacy (0-100 scale) (Poa annua; Pre-emergence, 50 g ai/ha): 100
efficacy (0-100 scale) (Poa annua; Pre-emergence, 100 g ai/ha): 100
efficacy (0-100 scale) (Kummerowia striata; Post-emergence, 12 g ai/ha): 80
efficacy (0-100 scale) (Kummerowia striata; Post-emergence, 25 g ai/ha): 90
efficacy (0-100 scale) (Kummerowia striata; Post-emergence, 50 g ai/ha): 100
efficacy (0-100 scale) (Kummerowia striata; Post-emergence, 100 g ai/ha): 100
efficacy (0-100 scale) (Kummerowia striata; Pre-emergence, 12 g ai/ha): 80
efficacy (0-100 scale) (Kummerowia striata; Pre-emergence, 25 g ai/ha): 90
efficacy (0-100 scale) (Kummerowia striata; Pre-emergence, 50 g ai/ha): 100
efficacy (0-100 scale) (Kummerowia striata; Pre-emergence, 100 g ai/ha): 100
efficacy (0-100 scale) (Portulaca oleracea; Post-emergence, 12 g ai/ha): 80
efficacy (0-100 scale) (Portulaca oleracea; Post-emergence, 25 g ai/ha): 90
efficacy (0-100 scale) (Portulaca oleracea; Post-emergence, 50 g ai/ha): 90
efficacy (0-100 scale) (Portulaca oleracea; Post-emergence, 100 g ai/ha): 100
efficacy (0-100 scale) (Portulaca oleracea; Pre-emergence, 12 g ai/ha): 40
efficacy (0-100 scale) (Portulaca oleracea; Pre-emergence, 25 g ai/ha): 60
efficacy (0-100 scale) (Portulaca oleracea; Pre-emergence, 50 g ai/ha): 90
efficacy (0-100 scale) (Portulaca oleracea; Pre-emergence, 100 g ai/ha): 100
efficacy (0-100 scale) (Veronica officinalis; Post-emergence, 12 g ai/ha): 10
efficacy (0-100 scale) (Veronica officinalis; Post-emergence, 25 g ai/ha): 20
efficacy (0-100 scale) (Veronica officinalis; Post-emergence, 50 g ai/ha): 30
efficacy (0-100 scale) (Veronica officinalis; Post-emergence, 100 g ai/ha): 40
efficacy (0-100 scale) (Veronica officinalis; Pre-emergence, 12 g ai/ha): 20
efficacy (0-100 scale) (Veronica officinalis; Pre-emergence, 25 g ai/ha): 30
efficacy (0-100 scale) (Veronica officinalis; Pre-emergence, 50 g ai/ha): 50
efficacy (0-100 scale) (Veronica officinalis; Pre-emergence, 100 g ai/ha): 60

Cc1cc(C)nc(NC(=O)NS(=O)(=O)c2ccccc2C(O)C(C)F)n1 (centres unmarked) [Example 1]
phytotoxicity in actual field condition (Zoysia japonica; 50 g ai/ha): 0
phytotoxicity in actual field condition (Zoysia japonica; 100 g ai/ha): 0
efficacy in actual field condition (Digitaria sanguinalis [2]; 50 g ai/ha): 80
efficacy in actual field condition (Digitaria sanguinalis [2]; 100 g ai/ha): 90
efficacy in actual field condition (Digitaria sanguinalis [2]; 200 g ai/ha): 100
weed controlled in actual field (Digitaria sanguinalis [2]; Digitaria sanguinalis, 50 g ai/ha or more): 80%
phytotoxicity in actual field condition (Kentucky bluegrass; 50 g ai/ha): 0
phytotoxicity in actual field condition (Kentucky bluegrass; 100 g ai/ha): 0
efficacy (0-100 scale) (Digitaria sanguinalis [1]; Post-emergence, 12 g ai/ha): 60
efficacy (0-100 scale) (Digitaria sanguinalis [1]; Post-emergence, 25 g ai/ha): 70
efficacy (0-100 scale) (Digitaria sanguinalis [1]; Post-emergence, 50 g ai/ha): 90
efficacy (0-100 scale) (Digitaria sanguinalis [1]; Post-emergence, 100 g ai/ha): 100
efficacy (0-100 scale) (Digitaria sanguinalis [1]; Pre-emergence, 12 g ai/ha): 60
efficacy (0-100 scale) (Digitaria sanguinalis [1]; Pre-emergence, 25 g ai/ha): 85
efficacy (0-100 scale) (Digitaria sanguinalis [1]; Pre-emergence, 50 g ai/ha): 100
efficacy (0-100 scale) (Digitaria sanguinalis [1]; Pre-emergence, 100 g ai/ha): 100
efficacy (0-100 scale) (Poa annua; Post-emergence, 12 g ai/ha): 10
efficacy (0-100 scale) (Poa annua; Post-emergence, 25 g ai/ha): 30
efficacy (0-100 scale) (Poa annua; Post-emergence, 50 g ai/ha): 50
efficacy (0-100 scale) (Poa annua; Post-emergence, 100 g ai/ha): 70
efficacy (0-100 scale) (Poa annua; Pre-emergence, 12 g ai/ha): 50
efficacy (0-100 scale) (Poa annua; Pre-emergence, 25 g ai/ha): 60
efficacy (0-100 scale) (Poa annua; Pre-emergence, 50 g ai/ha): 70
efficacy (0-100 scale) (Poa annua; Pre-emergence, 100 g ai/ha): 80
efficacy (0-100 scale) (Kummerowia striata; Post-emergence, 12 g ai/ha): 70
efficacy (0-100 scale) (Kummerowia striata; Post-emergence, 25 g ai/ha): 70
efficacy (0-100 scale) (Kummerowia striata; Post-emergence, 50 g ai/ha): 100
efficacy (0-100 scale) (Kummerowia striata; Post-emergence, 100 g ai/ha): 100
efficacy (0-100 scale) (Kummerowia striata; Pre-emergence, 12 g ai/ha): 70
efficacy (0-100 scale) (Kummerowia striata; Pre-emergence, 25 g ai/ha): 90
efficacy (0-100 scale) (Kummerowia striata; Pre-emergence, 50 g ai/ha): 90
efficacy (0-100 scale) (Kummerowia striata; Pre-emergence, 100 g ai/ha): 100
efficacy (0-100 scale) (Portulaca oleracea; Post-emergence, 12 g ai/ha): 70
efficacy (0-100 scale) (Portulaca oleracea; Post-emergence, 25 g ai/ha): 90
efficacy (0-100 scale) (Portulaca oleracea; Post-emergence, 50 g ai/ha): 100
efficacy (0-100 scale) (Portulaca oleracea; Post-emergence, 100 g ai/ha): 100
efficacy (0-100 scale) (Portulaca oleracea; Pre-emergence, 12 g ai/ha): 90
efficacy (0-100 scale) (Portulaca oleracea; Pre-emergence, 25 g ai/ha): 90
efficacy (0-100 scale) (Portulaca oleracea; Pre-emergence, 50 g ai/ha): 100
efficacy (0-100 scale) (Portulaca oleracea; Pre-emergence, 100 g ai/ha): 100
efficacy (0-100 scale) (Veronica officinalis; Post-emergence, 12 g ai/ha): 20
efficacy (0-100 scale) (Veronica officinalis; Post-emergence, 25 g ai/ha): 20
efficacy (0-100 scale) (Veronica officinalis; Post-emergence, 50 g ai/ha): 20
efficacy (0-100 scale) (Veronica officinalis; Post-emergence, 100 g ai/ha): 20
efficacy (0-100 scale) (Veronica officinalis; Pre-emergence, 12 g ai/ha): 30
efficacy (0-100 scale) (Veronica officinalis; Pre-emergence, 25 g ai/ha): 30
efficacy (0-100 scale) (Veronica officinalis; Pre-emergence, 50 g ai/ha): 40
efficacy (0-100 scale) (Veronica officinalis; Pre-emergence, 100 g ai/ha): 50
